Several values for one entry are separate records, joined by “and”; a condition that tells them apart may be missing. Equal entries are not always repeated.
Assays:
rabbit 20S proteasome = conditions: read-out: IC50, inhibition of chymotrypsin-like activity of the rabbit 20S proteasome; cited from earlier work
human 20S proteasome = target: T1, human 20S proteasome (Homo sapiens, UniProt P28074); assay: 20S proteasome inhibition assay (chymotrypsin-like activity, Suc-LLVY-AMC cleavage); assay type: biochemical; conditions: purified human erythrocyte 20S proteasome 3 μg/mL, Suc-LLVY-AMC 75 μM, 30° C., 10 min preincubation, triplicate ± SD
T1 construct: purified human erythrocyte 20S proteasome; purchased Enzo Life Sciences BML-PW8720-0020; host or cells: purified from human erythrocytes (native tissue material)

[1] = Stability in mild acidic conditions; assay type: physicochemical; conditions: resulting in polymerization
From the text: The fifth degree of unsaturation was attributed to cyclization. Two options were therefore available; a macrolactone cyclization between C-1 and the C-2″ hydroxyl, or a β-lactone between C-4″ and the C-2″ hydroxyl. The presence of IR absorption at 1835 cm^−1 was characteristic of a β-lactone carbonyl stretching band and therefore strongly supports cyclization between C-4″ and the hydroxyl at C-2″. The lack of HMBC correlation between H-2″ and C-1 also supported a β-lactone cyclization. The presence of the β-lactone was further confirmed by the instability of 1 in mild acidic conditions resulting in polymerization. The relative configuration at the C-2″ and C-3″ positions on the β-lactone moiety was determined from an analysis of the ^3JHH values.

IC50 (human 20S proteasome) | stability in mild acidic conditions [1] | Compound | IC50 (rabbit 20S proteasome)
 |  | belactosin C | 210 nM
930 nM |  | CC(C)C1C(=O)OC1C(=O)N[C@H](C(=O)N[C@H](C(=O)O)C(C)C)C(C)C (some centres unmarked) [Compound 2, Cystargolide B] | 
360 nM and 350 nM | instability | CCC(C)[C@H](NC(=O)[C@@H](NC(=O)C1OC(=O)C1C(C)C)C(C)C)C(=O)O (some centres unmarked) [Compound 1, Cystargolide A] | 
 |  | belactosin A | 210 nM
